In patent US9913478B2, “Organic and environmentally “green” biocide compositions and applications” (Arrowhead Center, Inc., priority 2013, dated 2018):

System: X. campestris Provencia strain
Assay: growth (CFU) after 18 hours of incubation, oil compared to carvacrol (FIG. 2)
Assay type: cell-based, Xanthomonas campestris
Details: 0.01 mg/ml, oil vs carvacrol p-value=0.009
Protocol: The bars in the graph indicate the bacterial number (CFU) that was reached after 18 hours of incubation. […] Thus, a composition of biocide comprising oregano oil exerts synergistic effects, due, in part, to the multiple antimicrobial biochemicals that make up the oil (see FIG. 1).

Cc1ccc(C(C)C)cc1O [Carvacrol, carvacrol]
inhibition of growth, bacterial number (CFU): not as effective as the essential oil
